Tests used:
[1] = tested on: BaF3; experiment: cells; conditions: Mus musculus, BaF3, 72 h
Description: Antiproliferative activity against mouse BA/F3 cells expressing wild type ABL after 3 days by MTS assay

[2] = tested on: BaF3; experiment: cells; conditions: Mus musculus, BaF3, 72 h; remark: listed apart in the source
Description: Antiproliferative activity against mouse BA/F3 cells expressing ABL T315I mutant after 3 days by MTS assay

[3] = tested on: BaF3; experiment: cells; conditions: Mus musculus, BaF3, 72 h; remark: listed apart in the source
Description: Antiproliferative activity against mouse BA/F3 cells after 3 days by MTS assay

[4] = Clearance in CD rat at 5 mg/kg, iv by LC-MS/MS analysis; format: ADME, organism-based; set-up: dose 5 mg/kg, route intravenous; conditions: in vivo
[5] = Volume of distribution in CD rat at 5 mg/kg, iv by LC-MS/MS analysis; format: ADME, organism-based; set-up: dose 5 mg/kg, route intravenous; conditions: in vivo
[6] = Half life in CD rat at 5 mg/kg, iv by LC-MS/MS analysis; format: ADME, organism-based; set-up: dose 5 mg/kg, route intravenous; conditions: in vivo
[7] = tested on: Rattus norvegicus; experiment: Dose normalized AUC (0 to 24 hrs) in CD rat at 15 mg/kg, po by LC-MS/MS analysis; format: ADME, organism-based; set-up: time < 24 hr, dose 15 mg/kg, route oral; conditions: in vivo
[8] = Cmax in CD rat at 15 mg/kg, po by LC-MS/MS analysis; format: ADME, organism-based; set-up: dose 15 mg/kg, route oral; conditions: CD, in vivo
[9] = Tmax in CD rat at 15 mg/kg, po by LC-MS/MS analysis; format: ADME, organism-based; set-up: dose 15 mg/kg, route oral; conditions: in vivo
[10] = Half life in CD rat at 15 mg/kg, po by LC-MS/MS analysis; format: ADME, organism-based; set-up: dose 15 mg/kg, route oral; conditions: in vivo
[11] = Oral bioavailability in CD rat at 15 mg/kg by LC-MS/MS analysis; format: ADME, organism-based; conditions: in vivo
[12] = Cmax in mouse at 30 mg/kg, po by LC-MS/MS analysis; conditions: in vivo
[13] = Half life in mouse at 30 mg/kg, po by LC-MS/MS analysis; conditions: in vivo
[14] = AUC (0 to 24 hrs) in mouse at 30 mg/kg, po by LC-MS/MS analysis; conditions: plasma
[15] = tested on: BaF3; experiment: cells; conditions: Mus musculus, BaF3, 72 h; remark: listed apart in the source
Description: Antiproliferative activity against mouse BA/F3 cells expressing wild type ABL after 3 days by MTS assay in presence of 340 uM human serum albumin

Compound | IC50 [1] [nM] | IC50 [2] [nM] | IC50 [3] [nM] | other results
Cc1ccc(C(=O)Nc2ccc(CN3CCN(C)CC3)c(C(F)(F)F)c2)cc1C#Cc1cnc2c(c1)OCC(=O)N2 | 3 | 17 | 369 | –
Cc1cn(-c2cc(NC(=O)c3ccc(C)c(/C=C/n4cnc5c(NC6CC6)ncnc54)c3)cc(C(F)(F)F)c2)cn1 | 7.3 | – | – | –
Cc1ccc(C(=O)Nc2ccc(CN3CCN(C)CC3)c(Cl)c2)cc1C#Cc1cnc2cccnn12 | 2.3 | 210 | 1920 | –
Cc1ccc(C(=O)Nc2ccc(CN3CCN(C)CC3)c(C(F)(F)F)c2)cc1/C=C/c1cnc2cccnn12 | 7.9 | 211 | 3240 | –
Cc1ccc(C(=O)Nc2ccc(CN3CCN(C)CC3)c(C(F)(F)F)c2)cc1CCc1cnc2cccnn12 | 4.3 | 295 | 6000 | –
Cc1ccc(C(=O)Nc2ccc(CN3CCN(C)CC3)c(C(F)(F)F)c2)cc1C#Cc1cnc2nc[nH]c2c1 | 3.4 | 42 | 890 | clearance [4]: 34 mL/min/kg; Vd [5]: 15.9 L/kg; half-life [6]: 5.4 h; AUC ([7]; BLD = below limit of detection): BLD; Cmax [8]: 32.7 ng/mL; Tmax [9]: 6 h
Cc1ccc(C(=O)Nc2cc(-n3ccnc3CN(C)C)cc(C(F)(F)F)c2)cc1C#Cc1cnc2ccccn12 | 11 | 251 | 7010 | –
CC(=O)Nc1cccn2c(C#Cc3cc(C(=O)Nc4cc(-n5ccnc5)cc(C(F)(F)F)c4)ccc3C)cnc12 | 11 | 44 | 7390 | –
Cc1ccc(C(=O)Nc2cccc(C(F)(F)F)c2)cc1C#Cc1cnc2cccnn12 | 10 | 1130 | 10000 | –
Cc1ccc(C(=O)Nc2cc(C(F)(F)F)ccn2)cc1C#Cn1cnc2c(NC3CC3)ncnc21 | 2 | 548 | – | AUC [7]: 11.8 ng·h/mL/mg/kg; half-life [10]: 1.5 h
Cc1ccc(C(=O)Nc2cc(C(F)(F)F)on2)cc1/C=C/n1cnc2c(NC3CC3)ncnc21 | 12 | 7120 | – | –
Cc1ccc(C(=O)Nc2ccc(CN3CCN(C)CC3)c(C3CC3)c2)cc1C#Cc1cnc2cccnn12 | 3.9 | 256 | 1870 | –
Cc1ccc(C(=O)Nc2cc(-n3ccnc3)cc(C(F)(F)F)c2)cc1/C=C/n1cnc2c(NC3CC3)ncnc21 | 4.2 | – | – | –
Cc1ccc(C(=O)Nc2cc(C(F)(F)F)ccn2)cc1/C=C/n1cnc2c(NC3CC3)ncnc21 | 4.8 | – | – | –
Cc1ccc(C(=O)Nc2cc(-n3cnc(CN4CCCC4)c3)cc(C(F)(F)F)c2)cc1C#Cc1cnc2ccccn12 | 9.4 | 135 | 3540 | –
Cc1ccc(C(=O)Nc2cc(-n3ccnc3)cc(C(F)(F)F)c2)cc1C#Cc1cnc2c(N)cccn12 | 8.6 | 72 | 10000 | clearance [4]: 6 mL/min/kg; Vd [5]: 8.2 L/kg; half-life [6]: 15.8 h; AUC [7]: 151.9 ng·h/mL/mg/kg; Cmax [8]: 234 ng/mL; Tmax [9]: 1 h; half-life [10]: 5.2 h; bioavailability [11]: 5.5%
Cc1ccc(C(=O)Nc2cc(-n3ccnc3)cc(C(F)(F)F)c2)cc1C#Cc1cnc2ccccn12 | 8 | 471 | 9840 | clearance [4]: 1.33 mL/min/kg; Vd [5]: 1 L/kg; half-life [6]: 9.1 h; AUC [7]: 5745.9 ng·h/mL/mg/kg; Cmax [8]: 2350 ng/mL; Tmax [9]: 6 h; half-life [10]: 21.6 h; bioavailability [11]: 42.4%; IC50 [15]: 51 nM

More lines, main results first:

IC50 [1] [nM] | IC50 [2] [nM] | IC50 [3] [nM] | Compound | other results
4 | 166 | 971 | Cc1ccc(C(=O)Nc2ccc(CN3CCN(CCF)CC3)c(C(F)(F)F)c2)cc1C#Cc1cnc2ccccn12 | –
2.1 | 727 | 7440 | Cc1ccc(C(=O)Nc2ccc(CN3CCOCC3)c(C(F)(F)F)c2)cc1C#Cc1cnc2ccccn12 | –
5.4 | 58 | 812 | Cc1ccc(C(=O)Nc2ccc(CN3CC[C@H](N(C)C)C3)c(C(F)(F)F)c2)cc1C#Cc1cnc2ccccn12 | –
2.3 | 39 | 4210 | CN1CCN(Cc2ccc(NC(=O)c3cccc(C#Cc4cnc5cccnn45)c3)cc2C(F)(F)F)CC1 | –
8 | 43 | 1650 | Cc1ccc(C(=O)Nc2ccc(CN3CCN(C(C)C)CC3)c(C(F)(F)F)c2)cc1C#Cc1cnc2ccccn12 | –
11 | 232 | 5380 | Cc1ccc(C(=O)Nc2cc(CN3CCN(C)CC3)cc(C(F)(F)F)c2)cc1C#Cc1cnc2ccccn12 | –
1.5 | 14 | 1680 | Cc1ccc(C(=O)Nc2ccc(CN3CCN(CCO)CC3)c(C(F)(F)F)c2)cc1C#Cc1cnc2cccnn12 | clearance [4]: 25.5 mL/min/kg; Vd [5]: 7.7 L/kg; half-life [6]: 3.5 h; AUC [7]: 145.3 ng·h/mL/mg/kg; Cmax [8]: 164 ng/mL; Tmax [9]: 4 h; half-life [10]: 3.4 h; bioavailability [11]: 22.3%; Cmax [12]: 1330 ng/mL; half-life [13]: 2.4 h; AUC(0-t) at 24 h [14]: 13700 ng·h/mL
1.2 | 8.8 | – | Cc1ccc(C(=O)Nc2ccc(CN3CCN(C)CC3)c(C(F)(F)F)c2)cc1C#Cc1cnc2cccnn12 [PONATINIB] | clearance [4]: 10.8 mL/min/kg; Vd [5]: 9.7 L/kg; half-life [6]: 10.2 h; AUC [7]: 278.5 ng·h/mL/mg/kg; Tmax [9]: 6 h; half-life [10]: 11 h; bioavailability [11]: 18.2%
5.2 | 49 | 1950 | CCN1CCN(Cc2ccc(NC(=O)c3ccc(C)c(C#Cc4cnc5ccccn45)c3)cc2C(F)(F)F)CC1 | –
10 | 500 | 1500 | Cc1ccc(C(=O)Nc2ccc(CN3CCN(C)CC3)c(C(F)(F)F)c2)cc1C#Cc1cnc2ncccn12 | –
2.5 | 8.6 | 1870 | CN1CCN(Cc2ccc(NC(=O)c3ccc(Cl)c(C#Cc4cnc5cccnn45)c3)cc2C(F)(F)F)CC1 | clearance [4]: 19.7 mL/min/kg; Vd [5]: 16.7 L/kg; half-life [6]: 9.9 h; AUC [7]: 673.8 ng·h/mL/mg/kg; Cmax [8]: 302 ng/mL; Tmax [9]: 6 h; half-life [10]: 20.2 h; bioavailability [11]: 79.2%; Cmax [12]: 441 ng/mL; half-life [13]: 2.9 h; AUC(0-t) at 24 h [14]: 6080 ng·h/mL
4.4 | 14 | 2020 | Cc1ccc(C(=O)Nc2ccc(CN3CCN(C)CC3)c(C(F)(F)F)c2)cc1C#Cc1cnc2[nH]ccc2c1 | clearance [4]: 20.8 mL/min/kg; Vd [5]: 19.6 L/kg; half-life [6]: 10.9 h; AUC [7]: 119 ng·h/mL/mg/kg; Cmax [8]: 71 ng/mL; Tmax [9]: 6 h; half-life [10]: 14.3 h; bioavailability [11]: 15%
0.9 | 13 | 1290 | Cc1ccc(C(=O)Nc2ccc(CN3CCN(C)CC3)c(C(F)(F)F)c2)cc1C#Cc1cnc2cnccn12 | clearance [4]: 48.3 mL/min/kg; Vd [5]: 14.7 L/kg; half-life [6]: 3.5 h; AUC [7]: 57 ng·h/mL/mg/kg; Cmax [8]: 57.8 ng/mL; Tmax [9]: 4 h; half-life [10]: 5 h; bioavailability [11]: 16.7%; Cmax [12]: 521 ng/mL; half-life [13]: 2.7 h; AUC(0-t) at 24 h [14]: 2690 ng·h/mL
9.5 | 203 | 3970 | Cc1ccc(C(=O)Nc2ccc(CN3CCNC(C)C3)c(C(F)(F)F)c2)cc1C#Cc1cnc2ccccn12 (stereo not given) | –
8.4 | 157 | 1880 | Cc1ccc(C(=O)Nc2ccc(CN3CCCN(C)CC3)c(C(F)(F)F)c2)cc1C#Cc1cnc2ccccn12 | –
2.3 | 42 | 1960 | Cc1ccc(C(=O)Nc2ccc(CN3CCN(CCO)CC3)c(C(F)(F)F)c2)cc1C#Cc1cnc2ccccn12 | –
3.6 | 26 | 1570 | Cc1ccc(C(=O)Nc2ccc(CN3CCN(C)CC3)c(C(F)(F)F)c2)cc1C#Cc1cnc2ccccn12 | clearance [4]: 12.5 mL/min/kg; Vd [5]: 11 L/kg; half-life [6]: 10.2 h; AUC [7]: 386.3 ng·h/mL/mg/kg; Cmax [8]: 149 ng/mL; Tmax [9]: 6 h; half-life [10]: 24.7 h; bioavailability [11]: 29%; IC50 [15]: 5.9 nM; Cmax [12]: 986 ng/mL; half-life [13]: 2.9 h; AUC(0-t) at 24 h [14]: 11300 ng·h/mL
2 | 50 | 1800 | Cc1ccc(NC(=O)c2ccc(CN3CCN(C)CC3)c(C(F)(F)F)c2)cc1C#Cc1cnc2ccccn12 | –
3.4 | 77 | 1010 | Cc1ccc(C(=O)Nc2ccc(OC3CCN(C)CC3)c(C(F)(F)F)c2)cc1C#Cc1cnc2ccccn12 | –
3.5 | 22 | 2080 | Cc1ccc(C(=O)Nc2ccc(CN3CCNCC3)c(C(F)(F)F)c2)cc1C#Cc1cnc2ccccn12 | –
4 | 34 | 915 | Cc1ccc(C(=O)Nc2ccc(CN3CCNCC3)c(C(F)(F)F)c2)cc1C#Cc1cnc2cccnn12 | –

Source: ChEMBL document CHEMBL1177713, “Discovery of 3-[2-(imidazo[1,2-b]pyridazin-3-yl)ethynyl]-4-methyl-N-{4-[(4-methylpiperazin-1-yl)methyl]-3-(trifluoromethyl)phenyl}benzamide (AP24534), a potent, orally active pan-inhibitor of breakpoint cluster region-abelson (BCR-ABL) kinase including the T315I gatekeeper mutant” (J Med Chem, 2010)
